Reference: patent US12435066B2, “Substituted tricyclic compounds” (LUPIN LIMITED, priority 2019, dated 2025)

Legend:
[1] = tested on: pERK in DLD1 cells; assay: ERK phosphorylation assay after EGF stimulation; format: cell-based; details: Homo sapiens, DLD-1, compound 2 h, 200 ng/ml hEGF 5 minutes, alphascreen pERK, read-out: ERK phosphorylation inhibition IC50
Procedure, shortened: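 DLD1 cells pretreated 2 h with compound, then stimulated 5 minutes with 200 ng/ml hEGF. Lysates assayed for ERK1/2 p-T202/Y204 by AlphaScreen SureFire, read after 2 h at 25-28° C.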

[2] = tested on: DLD-1 cell line; assay: Colony formation assay (single agent activity); format: cell-based; details: Homo sapiens, 168 h, 7 days of drug treatment, crystal violet
Protocol: Example-129: Colony Formation Assay Protocol (Single Agent Activity)
DLD-1/MIA PaCa-2 cells were seeded at a density of 300/500 cells per well respectively in 48 well tissue culture plate and cells were allowed to settle overnight (16 to 20 h). On the following day, cells were treated with different concentrations of test or reference compound and the assay plates were incubated under standard cell culture conditions (37° C. with 5% CO2). After 7 days of drug treatment, media was removed from each well and plates were washed with PBS. Colonies were stained with crystal violet solution for 2-5 min. Plate was then washed carefully under tap water and air dried. For quantitation, 200 μL destaining solution containing 10% Glacial acetic acid was added to each well and crystal violet from the colonies was allowed to solubilize for 20-30 min on plate shaker. After solubilization, absorbance of the extracted stain was recorded in BioTek Synergy Neo II plate reader at 590 nm. Absorbance values were directly proportional to colony growth.

[3] = tested on: MIA PaCa-2 human pancreatic cancer xenograft; assay: Tumor growth inhibition in subchronic xenograft model; format: in vivo; details: MIA PaCa-2 xenograft in nude mice, 50 mg/kg b.i.d.
Protocol: In vivo efficacy of compound 87 was evaluated in MIA PaCa-2 human pancreatic cancer xenograft model in nude mice.
20×10^6 MIA PaCa-2 cells were injected subcutaneously in the presence of PBS and matrigel in 1:1 ratio in nude mice. The tumor-bearing mice were randomized once the tumors reached an average volume of approximately 154-159 mm^3 (Tumor volume range 107-248 mm^3). The mice were divided into the following groups (n=7-8/group): Vehicle control and compound 87 (50 mg/kg; b.i.d.).

[4] = molecular target: T1, hSOS1 and hKRASG12C (Homo sapiens, UniProt Q07889); assay: biochemical
T1 sequence (Q07889 564-1049): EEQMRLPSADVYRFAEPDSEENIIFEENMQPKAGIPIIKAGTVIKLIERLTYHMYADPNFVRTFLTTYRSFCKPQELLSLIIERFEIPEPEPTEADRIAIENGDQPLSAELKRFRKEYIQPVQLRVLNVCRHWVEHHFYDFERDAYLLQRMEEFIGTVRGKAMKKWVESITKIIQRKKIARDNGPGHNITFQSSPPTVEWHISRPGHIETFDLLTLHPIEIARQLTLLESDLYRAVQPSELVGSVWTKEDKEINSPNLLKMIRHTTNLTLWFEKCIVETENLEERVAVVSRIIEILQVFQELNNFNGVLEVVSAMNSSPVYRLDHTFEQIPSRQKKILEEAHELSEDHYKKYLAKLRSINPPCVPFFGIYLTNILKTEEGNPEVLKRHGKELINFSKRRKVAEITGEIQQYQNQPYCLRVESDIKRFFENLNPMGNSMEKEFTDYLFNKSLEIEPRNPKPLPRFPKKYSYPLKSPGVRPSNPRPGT
Protocol: Interaction assay was conducted to evaluate the ability of the compounds to disrupt the protein-protein interactions between hSOS1 and hKRASG12C. Inhibitory effect of compounds on GST-hSOS1, 564-1049aa expressed and purified in-house and HIS-hKRASG12C (R06-32DH, SignalChem) interaction was assessed using HTRF detection technology in biochemical assay. Compounds were pre-incubated with 10-50 nM working solution of hSOS1 per well of a 384 well plate (Perkin Elmer, Cat #6007290) for 10 min at 20° C. in the assay buffer containing 5 mM HEPES, pH 7.4, 150 mM NaCl, 10 mM EDTA, 1 mM DTT, 0.05% BSA fraction V and 0.0025% Igepal. Reaction was initiated by adding 100-300 nM working solution of hKRASG12C in assay buffer. Total assay volume was 15 μL. Reaction was continued for 30-60 min at 20° C. Then detection solution containing MAb Anti-GST-d2 (#61GSTDLA, Cisbio BioAssays) and MAb Anti-HIS-Tb (#61HISTLA, Cisbio BioAssays), all prepared in HTRF detection buffer (#61DB10RDF, Cisbio BioAssays) was added and further incubated for 30-60 min at 20° C. HTRF signal was recorded in PHERAStar microplate reader. Ratio of signal obtained at 665 nm and 620 nm was used to compute the percent inhibition of compound utilizing the following formula:
Positive control=hSOS1+hKRASG12C+MAb Anti-GST-d2+Mab Anti-HIS-Tb Negative control=hKRASG12C+MAb Anti-GST-d2+MAb Anti-HIS-Tb

[5] = molecular target: T2, hSOS1 mediated nucleotide exchange on hKRASG12C (Homo sapiens, UniProt Q07889); assay: biochemical
T2 sequence (Q07889 564-1049): T1 sequence (Q07889 564-1049)

SMILES	IC50 [1]	IC50 [2]	% tumor growth inhibition [3]	IC50 [4]	IC50 [5]
Cc1nc(N[C@H](C)c2cc(N)cc(C(F)(F)F)c2)c2cc(-c3ccc(=O)n(C)c3)c3c(c2n1)CCC3 [Compound 87, (R)-5-(4-((1-(3-amino-5-(trifluoromethyl)phenyl)ethyl)amino)-2-methyl-8,9-dihydro-7H-cyclopenta[h]quinazolin-6-yl)-1-methylpyridin-2(1H)-one]	1 to 200 nM	500 to 6000 nM	more than 70%	1 to 10 nM	31 to 70 nM
Cc1nc(N[C@H](C)c2cccc(C(F)(F)[C@](C)(O)CO)c2F)c2cc(N3CCOCC3)c3c(c2n1)CCC3 (racemic) [Compound 82a, (R/S)-3,3-difluoro-3-(2-fluoro-3-((R/S)-1-((2-methyl-6-morpholino-8,9-dihydro-7H-cyclopenta[h]quinazolin-4-yl)amino)ethyl)phenyl)-2-methylpropane-1,2-diol]	1 to 200 nM	500 to 6000 nM	–	1 to 10 nM	1 to 30 nM
